Results: patent publication US11396517B1, “Exo-aza spiro inhibitors of menin-MLL interaction” (Janssen Pharmaceutica NV, priority 2017, dated 2022)
Like-named read-outs stand apart in the source and are kept apart here.

How the values were obtained:
[1] = molecular target: T1, menin (Homo sapiens, UniProt O00255, T541A); test: Menin/MLL homogenous time-resolved fluorescence (HTRF) assay; format: binding
T1 construct: Menin (a.a. 1-610-6×his tag)
T1 sequence (O00255 with tags, fused parts or gaps T541A): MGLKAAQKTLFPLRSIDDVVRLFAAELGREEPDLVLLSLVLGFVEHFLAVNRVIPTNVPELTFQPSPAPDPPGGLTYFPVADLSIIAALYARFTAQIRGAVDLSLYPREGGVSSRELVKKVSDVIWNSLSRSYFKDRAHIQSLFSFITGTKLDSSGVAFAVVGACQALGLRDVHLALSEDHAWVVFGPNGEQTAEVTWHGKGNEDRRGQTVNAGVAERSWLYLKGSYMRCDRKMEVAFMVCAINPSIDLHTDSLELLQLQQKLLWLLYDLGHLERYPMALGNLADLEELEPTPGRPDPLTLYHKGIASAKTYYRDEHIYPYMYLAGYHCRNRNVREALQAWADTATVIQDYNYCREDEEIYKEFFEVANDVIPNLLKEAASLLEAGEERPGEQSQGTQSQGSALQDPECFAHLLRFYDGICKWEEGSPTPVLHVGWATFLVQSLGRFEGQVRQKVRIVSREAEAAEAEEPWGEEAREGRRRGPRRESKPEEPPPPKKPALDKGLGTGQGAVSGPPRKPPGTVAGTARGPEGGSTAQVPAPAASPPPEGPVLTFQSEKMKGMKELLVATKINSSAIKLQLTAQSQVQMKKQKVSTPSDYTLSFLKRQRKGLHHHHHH
In short: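 Displacement of 75 nM FITC-MBM1 from terbium-cryptate-labeled His-tagged menin 1-610 ([…]) was read as the 520/490 nm HTRF ratio. Compound (11-point, 3-fold series) got 5 min with menin before peptide, then 15 min at ambient; 0.5% DMSO, Tris pH 7.5.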

[2] = system: MV-4-11; test: Proliferation assay A (spheroid assay) MV-4-11; format: cell-based, human; details: MV-4-11 cells, 8 d, AUC of confluence against time, absolute IC50, read-out: (3a) Spheroid assay MV-4-11 (IC50(μM)) Assay A
In short: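 Spheroid growth in ultra-low-attachment round-bottom wells (1,500 MV-4-11, 300 MOLM14 or 750 K562 cells), compound titration at 0.3% DMSO, 8 d at 37° C. Confluence imaged every 4 h; AUC from t=0 baseline expressed as % of DMSO control and fitted for absolute IC50.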

[3] = system: MOLM14; test: Proliferation assay A (spheroid assay) MOLM14; format: cell-based, human; details: MOLM14 cells, 8 d, AUC of confluence against time, absolute IC50, read-out: (3a) Spheroid assay MOLM14 (IC50(μM)) Assay A
Protocol: (§1) 3a) Proliferation Assay A
(§2) The anti-proliferative effect of menin/MLL protein/protein interaction inhibitor test compounds was assessed in human leukemia cell lines. The cell lines MV-4-11 and MOLM14 harbor MILL translocations and express the MILL fusion proteins MLL-AF4 and MLL-AF9, respectively, as well as the wildtype protein from the second allele. […] K562 was used as a control cell line containing two MLL wildtype alleles in order to exclude compounds that display general cytotoxic effects.
(§3) MV-4-11 and MOLM14 were cultured in RPMI-1640 (Sigma Aldrich) supplemented with 10% fetal bovine serum (HyClone), 2 mM L-glutamine (Sigma Aldrich) and 50 μg/ml gentamycin (Gibco). K562 were propagated in RPMI-1640 (Sigma Aldrich) supplemented with 20% fetal bovine serum (HyClone), 2 mM L-glutamine (Sigma Aldrich) and 50 μg/ml gentamycin (Gibco).
(§4) In order to assess the anti-proliferative effects, 1,500 MV-4-11, 300 MOLM14 or 750 K562 cells were seeded in 200 μl media per well in 96-well round bottom, ultra-low attachment plates (Costar, catalogue number 7007). Cell seeding numbers were chosen based on growth curves to ensure linear growth throughout the experiment. Test compounds were added at different concentrations and the DMSO content was normalized to 0.3%. Cells were incubated for 8 d at 37° C. and 5% CO2. Spheroid like growth was monitored in real-time by live-cell imaging (IncuCyteZOOM, Essenbio, 4× objective) acquiring one image every four hours for 8 d. Confluence (%) as a measure of spheroid size was determined using an integrated analysis tool.
In order to determine the cumulative effect of the test compounds over time, the area under the curve (AUC) in a plot of confluence against time was calculated. Confluence at the beginning of the experiment (t=0) was used as baseline for the AUC calculation.
Absolute IC50 values were calculated according to the following procedure: % Control=(AUC sample/AUC control)*100
AUC control mean AUC of control values (cells without compound/DMSO as vehicle control)
A non-linear curve fit was applied using the least squares (ordinary) fit method to the plot of % control versus compound concentration. Based on this, the absolute IC50 value (half maximal inhibitory concentration of the test compound causing an anti-proliferative effect of 50% relative to the vehicle control) was calculated.

[4] = system: K562; test: Proliferation assay A (spheroid assay) K562 control cell line; format: cell-based; details: Homo sapiens, 192 h; K562 cells (MLL wildtype control), 8 d, AUC of confluence against time; read-out: (3a) Spheroid assay K562 Assay A
Protocol: as §1, §2
MV-4-11 and MOLM14 were cultured in RPMI-1640 (Sigma Aldrich) supplemented with 10% fetal bovine serum (HyClone), 2 mM L-glutamine (Sigma Aldrich) and 50 μg/ml gentamycin (Gibco). […]
In order to assess the anti-proliferative effects, 1,500 MV-4-11, 300 MOLM14 or 750 K562 cells were seeded in 200 μl media per well in 96-well round bottom, ultra-low attachment plates (Costar, catalogue number 7007). […] Spheroid like growth was monitored in real-time by live-cell imaging (IncuCyteZOOM, Essenbio, 4× objective) acquiring one image every four hours for 8 d. Confluence (%) as a measure of spheroid size was determined using an integrated analysis tool.
In order to determine the cumulative effect of the test compounds over time, the area under the curve (AUC) in a plot of confluence against time was calculated. […]

[5] = system: MV-4-11; test: Proliferation assay B (spheroid assay) MV-4-11; format: cell-based, human; details: MV-4-11 cells, confluence at day 8, absolute IC50, read-out: (3b) Spheroid assay MV-4--11 (IC50(μM)) Assay B
In short: (§5)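 IC50 derived from % effect on day-8 imaged confluence, scaled between DMSO-treated cells (high) and 1 μM staurosporine (low), using a variable-slope fit constrained 0-100%. Cells seeded as spheroids in ultra-low-attachment plates and exposed to compound for 8 days, 0.3% DMSO.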

[6] = system: MOLM14; test: Proliferation assay B (spheroid assay) MOLM14; format: cell-based, human; details: MOLM14 cells, confluence at day 8, absolute IC50, read-out: (3b) Spheroid assay MOLM14 (IC50(μM)) Assay B
In short: as §5

[7] = system: K562; test: Proliferation assay B (spheroid assay) K562 control cell line; format: cell-based; details: Homo sapiens, 192 h; K562 cells (MLL wildtype control), confluence at day 8; read-out: (3b) Spheroid assay K562 Assay B
Protocol: 3b) Proliferation Assay B
as §2, §3
as §4, with “MOLM14 cells” for “MOLM14”, “measured” for “monitored”, “images at day 8.” for “one image every four hours for 8 d.”
In order to determine the effect of the test compounds over time, the confluence in each well as a measure of spheroid size, was calculated. Confluence […] at the beginning of the experiment (t=0) was used as baseline for the calculation.
Absolute IC50 values were calculated as percent change in confluence as follows:
LC=Low Control: cells treated with 1 μM of the cytotoxic agent staurosporin
HC=High Control: Mean confluence (%) (DMSO treated cells) % Effect=100−(100*(Sample−LC)/(HC−LC))
To determine the IC50 a curve is fitted to the plot of % Effect vs Log 10 compound concentration using a sigmoidal fit with a variable slope and fixing the maximum to 100% and the minimum to 0%.

[8] = location 1, read-out: (2) location 1 Menin HTRF assay (IC50 (nM))
[9] = location 2, read-out: (2) location 2 Menin HTRF assay (IC50 (nM))

FC(F)(F)Cc1cc2c(N3CC4(CC[C@@H](NCc5ccccc5)C4)C3)ncnc2s1 (single isomer, unassigned) [Compound 47]
IC50 [1, 8]: 15.5 nM
IC50 ([2]; Homo sapiens, MV4-11, 192 h): 0.14 µM
IC50 ([3]; Homo sapiens, MOLM-14, 192 h): 1.02 µM
IC50 [4]: > 15000 nM

CNC(=O)c1ccc(NC2CC3(CCN(c4ncnc5sc(CC(F)(F)F)cc45)C3)C2)cc1OCCN(C)C (single isomer, unassigned) [Compound 77]
IC50 [1, 9]: 1.8 nM
IC50 ([5]; Homo sapiens, MV4-11, 192 h): 0.19 µM
IC50 ([6]; Homo sapiens, MOLM-14, 192 h): 0.63 µM
IC50 [7]: 7850 nM

O=c1[nH]c2ccc(CNC3CCC4(C3)CN(c3ncnc5sc(CC(F)(F)F)cc35)C4)cc2[nH]1 (single isomer, unassigned) [Compound 109]
IC50 [1, 9]: 1.6 nM
IC50 [2]: 0.24 µM
IC50 [3]: 3.24 µM
IC50 ([6]; Homo sapiens, MOLM-14, 192 h): 2.26 µM

CN1CC=C(c2cc(NC3CC4(CCN(c5ncnc6sc(CC(F)(F)F)cc56)C4)C3)ccc2C(C)(C#N)C#N)CC1 (single isomer, unassigned) [Compound 246]
IC50 [1, 9]: 206 nM
IC50 [5]: 0.26 µM
IC50 [6]: 0.13 µM
IC50 [7]: 3970 nM

N#CCc1ccc(NC2CC3(CCN(c4ncnc5sc(CC(F)(F)F)cc45)C3)C2)cc1 (single isomer, unassigned) [Compound 307]
IC50 [1, 9]: 3.1 nM
IC50 [2]: 1.05 µM
IC50 [3]: 3.38 µM
IC50 ([6]; Homo sapiens, MOLM-14, 192 h): 2.44 µM

FC(F)(F)Cc1cc2c(N3CCC4(CC(NCc5ccccc5)C4)C3)ncnc2s1 (stereo not drawn) [Compound 48]
IC50 [1, 8]: 12 nM
IC50 ([2]; Homo sapiens, MV4-11, 192 h): 0.35 µM
IC50 ([3]; Homo sapiens, MOLM-14, 192 h): 1.58 µM
IC50 [4]: > 15000 nM

FC(F)(F)Cc1cc2c(N3CCC4(CC(Nc5ccc(-c6nnc[nH]6)cc5)C4)C3)ncnc2s1 (stereo not drawn) [Compound 370]
IC50 ([5]; Homo sapiens, MV4-11, 192 h): 0.35 µM
IC50 ([6]; Homo sapiens, MOLM-14, 192 h): 1.57 µM
IC50 [7]: 7300 nM

O=C(NCC(F)(F)F)c1ccc(NC2CC3(CCN(c4ncnc5sc(CC(F)(F)F)cc45)C3)C2)cc1 (stereo not drawn) [Compound 371]
IC50 ([5]; Homo sapiens, MV4-11, 192 h): 0.08 µM
IC50 ([6]; Homo sapiens, MOLM-14, 192 h): 0.3 µM
IC50 [7]: 6480 nM
